“And” between values parts separate entries of the source, which are not always exact repeats. Equal entries are not always repeated.
Experiments:
Type in all cases: binding
LRRK2^KW = target: T1, LRRK2^KW (Homo sapiens, UniProt Q5S007); experiment: DSF thermal stabilization of LRRK2^KW; details: for ∆Tm (K): DSF, LRRK2^KW, 10 μM inhibitor
T1 construct: LRRK2 R1847 to E2527; His6-Z-tag (TEV cleavable) (N, cleaved yes); host or cells: Sf9 insect cells (baculovirus)
T1 sequence (Q5S007 1847-2527): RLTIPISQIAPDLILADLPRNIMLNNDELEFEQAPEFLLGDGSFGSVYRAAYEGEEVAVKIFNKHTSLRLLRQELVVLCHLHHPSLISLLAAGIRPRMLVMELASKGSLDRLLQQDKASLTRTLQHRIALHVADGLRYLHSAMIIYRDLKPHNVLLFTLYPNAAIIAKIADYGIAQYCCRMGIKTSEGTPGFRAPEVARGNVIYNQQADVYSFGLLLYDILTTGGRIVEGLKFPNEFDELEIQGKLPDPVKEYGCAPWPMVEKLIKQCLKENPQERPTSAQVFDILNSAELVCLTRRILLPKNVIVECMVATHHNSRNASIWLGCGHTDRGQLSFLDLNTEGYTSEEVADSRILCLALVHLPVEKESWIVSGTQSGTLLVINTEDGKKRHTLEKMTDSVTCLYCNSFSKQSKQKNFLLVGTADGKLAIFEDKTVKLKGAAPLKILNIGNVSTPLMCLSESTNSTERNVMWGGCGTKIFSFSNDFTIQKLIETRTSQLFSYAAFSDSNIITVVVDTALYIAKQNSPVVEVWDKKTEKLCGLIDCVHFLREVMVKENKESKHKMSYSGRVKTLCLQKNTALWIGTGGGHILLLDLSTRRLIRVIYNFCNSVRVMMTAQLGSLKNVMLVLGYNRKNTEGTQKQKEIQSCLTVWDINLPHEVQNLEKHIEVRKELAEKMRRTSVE
Outline: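 DSF on 4 μM LRRK2^KW in 20 mM Hepes pH 7.4, 150 mM NaCl, 0.5 mM TCEP, 0.5% glycerol, 20 μM GDP, 2.5 mM MgCl2 with SYPRO Orange; inhibitor at 10 μM. Tm was taken as the minimum of the first derivative of fluorescence versus temperature, relative to control.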

[1] = target: T2, ~100 representative kinases (Homo sapiens, UniProt Q99986); experiment: DSF 100 kinase selectivity screen; details: Protein VRK1; DSF; average of three replicates;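 note: compound tested at 20 µM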
T2 construct: Recombinant protein kinase domains with a concentration of 2 μM
T2 sequence (Q99986 1-396): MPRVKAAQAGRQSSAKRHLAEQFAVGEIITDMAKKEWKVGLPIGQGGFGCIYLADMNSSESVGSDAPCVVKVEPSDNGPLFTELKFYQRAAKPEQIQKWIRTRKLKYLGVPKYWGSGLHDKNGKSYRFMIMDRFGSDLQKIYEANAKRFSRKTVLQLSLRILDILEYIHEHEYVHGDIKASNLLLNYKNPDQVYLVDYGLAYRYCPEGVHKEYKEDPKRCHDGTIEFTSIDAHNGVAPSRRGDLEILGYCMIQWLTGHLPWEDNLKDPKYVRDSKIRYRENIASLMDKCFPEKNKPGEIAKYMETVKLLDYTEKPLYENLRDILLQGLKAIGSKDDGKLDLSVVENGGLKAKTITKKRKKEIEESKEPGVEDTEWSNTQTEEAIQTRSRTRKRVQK
Protocol: (§1) Recombinant protein kinase domains with a concentration of 2 μM were mixed with a 20 μM compound solution in dimethyl sulfoxide (DMSO), 20 mM Hepes (pH 7.5), and 500 mM NaCl. SYPRO Orange (5000×, Invitrogen) was added as a fluorescence probe (1μl/ml). Subsequently, temperature-dependent protein unfolding profiles were measured using the QuantStudio 5 realtime PCR machine (Thermo Fisher Scientific, Waltham, MA, USA). […] The temperature was raised with a step rate of 3°C/min. […] Differences in melting temperature are given as ΔTm values in degrees Celsius. […]

[2] = target: T3, ~100 representative kinases (Homo sapiens, UniProt P49841); experiment: DSF 100 kinase selectivity screen; details: protein GSK3B; average of three replicates;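 note: compound tested at 20 µM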
T3 construct: Recombinant protein kinase domains with a concentration of 2 μM
T3 sequence (P49841 whole entry, the tested form may be a part): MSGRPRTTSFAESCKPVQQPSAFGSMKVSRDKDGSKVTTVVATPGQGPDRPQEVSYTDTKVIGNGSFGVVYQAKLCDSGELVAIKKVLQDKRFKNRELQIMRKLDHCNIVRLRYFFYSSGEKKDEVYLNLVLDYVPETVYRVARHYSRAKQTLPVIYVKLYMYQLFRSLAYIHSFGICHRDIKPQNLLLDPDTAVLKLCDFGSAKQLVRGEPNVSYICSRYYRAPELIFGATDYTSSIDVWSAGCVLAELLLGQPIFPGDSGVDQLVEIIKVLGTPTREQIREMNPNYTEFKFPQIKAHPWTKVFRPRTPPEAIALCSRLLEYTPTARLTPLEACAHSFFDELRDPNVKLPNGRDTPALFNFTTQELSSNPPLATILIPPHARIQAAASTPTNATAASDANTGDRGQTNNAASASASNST
Protocol: as §1

[3] = target: T4, ~100 representative kinases (Homo sapiens, UniProt O94768); experiment: DSF 100 kinase selectivity screen; details: Protein STK17B; DSF; average of three replicates;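 note: compound tested at 20 µM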
T4 construct: Recombinant protein kinase domains with a concentration of 2 μM
T4 sequence (O94768 1-372): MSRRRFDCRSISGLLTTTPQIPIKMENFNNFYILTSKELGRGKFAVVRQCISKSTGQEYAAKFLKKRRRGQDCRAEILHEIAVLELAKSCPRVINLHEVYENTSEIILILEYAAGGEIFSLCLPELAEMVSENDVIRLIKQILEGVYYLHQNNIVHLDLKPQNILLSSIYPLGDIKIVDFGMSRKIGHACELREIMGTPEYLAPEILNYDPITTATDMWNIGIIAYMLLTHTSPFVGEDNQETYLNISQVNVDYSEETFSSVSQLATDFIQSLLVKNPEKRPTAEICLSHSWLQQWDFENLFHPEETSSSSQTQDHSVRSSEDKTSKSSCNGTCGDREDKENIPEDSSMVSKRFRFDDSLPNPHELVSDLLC
Protocol: as §1

[4] = target: T5, ~100 representative kinases (Homo sapiens, UniProt Q92630); experiment: DSF 100 kinase selectivity screen; details: Protein DYRK2; average of three replicates;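 note: compound tested at 20 µM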
T5 construct: Recombinant protein kinase domains with a concentration of 2 μM
T5 sequence (Q92630 1-601): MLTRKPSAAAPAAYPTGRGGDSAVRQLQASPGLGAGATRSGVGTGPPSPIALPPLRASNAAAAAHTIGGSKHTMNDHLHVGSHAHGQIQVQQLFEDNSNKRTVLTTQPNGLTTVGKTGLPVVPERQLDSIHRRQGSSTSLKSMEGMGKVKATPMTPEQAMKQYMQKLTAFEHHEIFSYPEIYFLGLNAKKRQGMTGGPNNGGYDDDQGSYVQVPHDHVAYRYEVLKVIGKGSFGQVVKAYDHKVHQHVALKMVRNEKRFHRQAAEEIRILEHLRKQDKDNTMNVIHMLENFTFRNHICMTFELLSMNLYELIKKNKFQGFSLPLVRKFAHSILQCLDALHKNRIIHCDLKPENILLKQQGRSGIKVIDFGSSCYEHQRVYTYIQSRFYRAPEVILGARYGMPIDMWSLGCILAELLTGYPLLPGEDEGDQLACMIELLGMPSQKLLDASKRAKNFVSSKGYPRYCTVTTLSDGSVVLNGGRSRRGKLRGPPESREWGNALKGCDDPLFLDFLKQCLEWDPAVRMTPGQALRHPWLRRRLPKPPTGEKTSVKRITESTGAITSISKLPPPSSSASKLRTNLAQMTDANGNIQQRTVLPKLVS
Protocol: as §1

SMILES	∆Tm (K) (LRRK2^KW)	dTm [1] [K]	dTm [2] [K]	dTm [3] [K]	dTm [4] [K]	∆Tm (K) (LRRK2^KW; listed as 32 (RN341))	∆Tm (K) (LRRK2^KW; listed as RN341)	dTm LRRK2(KW) [K] (LRRK2^KW; screen of 31 type-II inhibitors, Table S1)
COc1cc(NC(=O)C2(C(=O)Nc3cccc(-c4c[nH]c5ncnc(N6CCOCC6)c45)c3)CC2)ccc1F [Compound 21]	9.3 K	0.93	8.20	8.47	8.53			
CC(C)(C)c1cccc(NC(=O)C2(C(=O)Nc3cccc(-c4c[nH]c5ncnc(N6CCOCC6)c45)c3)CC2)c1 [Compound 22]	12.0 K	0.81	6.13	0.00	5.80			
O=C(Nc1cccc(-c2c[nH]c3ncnc(N4CCOCC4)c23)c1)C1(C(=O)Nc2ccc(F)cc2F)CC1 [Compound 23]	9.2 K	0.51	3.90	3.82	3.88			
Cc1cc(F)ccc1NC(=O)C1(C(=O)Nc2cccc(-c3c[nH]c4ncnc(N5CCOCC5)c34)c2)CC1 [Compound 24]	8.5 K	0.44	4.64	2.37	1.96			
O=C(Nc1cccc(-c2c[nH]c3ncnc(N4CCOCC4)c23)c1)C1(C(=O)Nc2cc(Br)c(F)cc2F)CC1 [Compound 25]	9.0 K	1.24	1.43	0.00	2.68			
O=C(Nc1cccc(-c2c[nH]c3ncnc(N4CCOCC4)c23)c1)C1(C(=O)Nc2ccc(F)c(Br)c2F)CC1 [Compound 26]	10.7 K	1.02	7.56	0.00	4.70			
O=C(Nc1cc(F)cc(Br)c1)C1(C(=O)Nc2cccc(-c3c[nH]c4ncnc(N5CCOCC5)c34)c2)CC1 [Compound 27]	10.2 K	1.05	3.16	0.00	3.64			
CC(C)(C)c1cc(NC(=O)Nc2cccc(-c3c[nH]c4ncnc(N5CCOCC5)c34)c2)n(-c2ccc3ncccc3c2)n1 [Compound 28]	20.0 K	1.63	13.25	9.72	10.25			
CCSc1nc(NC)c2c(-c3cccc(NC(=O)Nc4cc(C(C)(C)C)nn4-c4ccc(C)cc4)c3)c[nH]c2n1 [Compound 32]		-0.68	-0.49	6.20	6.49	19.9	20	
COc1cc2c(Oc3ccc(NC(=O)C4(C(=O)Nc5ccc(F)cc5)CC4)cc3F)ccnc2cc1OCCCN1CCOCC1 [Foretinib, reference compound]	12.1 ± 0.1 K	1.05	3.46	3.63	4.19			11.5
Cc1ccc(C(=O)Nc2ccc(CN3CCN(C)CC3)c(C(F)(F)F)c2)cc1C#Cc1cnc2[nH]ncc2c1 [GZD-824, reference compound]	21.2 ± 2.5 K	0.0366	4.71	-1.15	4.99			
CNC(=O)c1cc(Oc2ccc(NC(=O)Nc3cc(C(C)(C)C)nn3-c3ccc4ncccc4c3)c(F)c2)ccn1 [Rebastinib, reference compound]	18.5 K and 18.5 ± 0.7 K	0.52	11.89	6.81	6.14			

Reference: publication PMC12136037, “Type II kinase inhibitors that target Parkinson’s disease–associated LRRK2” (Science Advances, 2025)
